# Experimental data published in ChEMBL document CHEMBL1154965, “3-(Arylsulfonyl)-1-(azacyclyl)-1H-indoles are 5-HT(6) receptor modulators” (Bioorg Med Chem Lett, 2010).
# How the values were obtained:
# [1] = molecular target: T1, 5-hydroxytryptamine receptor 6 (Homo sapiens, UniProt P50406); test: Antagonist activity at human 5-HT6 receptor expressed in human HeLa cells assessed as inhibition of 5HT-induced intracellular cAMP level after 10 mins by radioimmunoassay; format: functional, cell-based
# [2] = molecular target: T1, 5-hydroxytryptamine receptor 6; test: Antagonist activity at human 5-HT6 receptor expressed in human HeLa cells assessed as inhibition of 5HT-induced intracellular cAMP level after 10 mins by radioimmunoassay relative to serotonin; format: functional, cell-based
# [3] = molecular target: T1, 5-hydroxytryptamine receptor 6; test: Displacement of [3H]LSD from human 5-HT6 receptor expressed in human HeLa cells after 2 hrs; format: cell-based
# [4] = molecular target: T1, 5-hydroxytryptamine receptor 6; test: Agonist activity at human 5-HT6 receptor expressed in human HeLa cells assessed as effect on 5HT-induced intracellular cAMP level after 10 mins by radioimmunoassay; format: functional, cell-based
# [5] = molecular target: T1, 5-hydroxytryptamine receptor 6; test: Agonist activity at human 5-HT6 receptor expressed in human HeLa cells assessed as effect on 5HT-induced intracellular cAMP level after 10 mins by radioimmunoassay relative to serotonin; format: functional, cell-based
# T1 sequence (P50406 whole entry): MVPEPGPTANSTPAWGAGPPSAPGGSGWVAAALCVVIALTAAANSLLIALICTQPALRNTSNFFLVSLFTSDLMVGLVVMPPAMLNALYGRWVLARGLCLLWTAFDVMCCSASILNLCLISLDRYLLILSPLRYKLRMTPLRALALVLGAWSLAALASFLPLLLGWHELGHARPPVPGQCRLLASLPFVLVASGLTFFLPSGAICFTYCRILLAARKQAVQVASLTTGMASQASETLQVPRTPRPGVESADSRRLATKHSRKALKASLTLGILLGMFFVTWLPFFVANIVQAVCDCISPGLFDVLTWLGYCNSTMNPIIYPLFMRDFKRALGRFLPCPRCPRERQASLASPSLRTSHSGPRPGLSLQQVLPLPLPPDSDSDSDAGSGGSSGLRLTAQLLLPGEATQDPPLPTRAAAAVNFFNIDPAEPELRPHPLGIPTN
IC50 [1] [nM],Imax [2] [%],Ki [3] [nM],EC50 [4] [nM],Emax [5] [%],Structure (SMILES)
18,85,,,,O=S(=O)(c1cccc(F)c1)c1cn(C2CCCNC2)c2ccc(F)cc12 (stereo not drawn)
,,15,,,O=S(=O)(c1cccc(F)c1)c1cn(C2CCNC2)c2ccc(Cl)cc12 (stereo not drawn)
,,113,,,O=S(=O)(c1ccccc1)c1cn(C2CCN(Cc3ccccc3)C2)c2ccccc12 (stereo not drawn)
107,87,7.1,,,CN1CCCC(n2cc(S(=O)(=O)c3cccc4ccccc34)c3ccccc32)C1 (stereo not drawn)
80,100,4.6,,,COc1ccc2c(S(=O)(=O)c3cccc(Cl)c3)cn(C3CCNC3)c2c1 (stereo not drawn)
,,5,60,70,O=S(=O)(c1ccccc1)c1cn(C2CCNC2)c2ccccc12 (stereo not drawn)
,,9.6,38,50,O=S(=O)(c1cccc(F)c1)c1cn(C2CCNC2)c2ccc(F)cc12 (stereo not drawn)
17,86,1.3,,,CN1CCC(n2cc(S(=O)(=O)c3cccc(Cl)c3)c3ccccc32)C1 (stereo not drawn)
,,72,,,O=S(=O)(c1cccc(F)c1)c1cn(C2CCNC2)c2cc(Cl)ccc12 (stereo not drawn)
,,18,,,O=S(=O)(c1cccc(F)c1)c1cn(C2CCNC2)c2cccc(F)c12 (stereo not drawn)
,,5.6,592,71,O=S(=O)(c1cn(C2CCCNC2)c2ccccc12)c1cccc2cccnc12 (stereo not drawn)
,,7.3,31,52,CCN1CCCC(n2cc(S(=O)(=O)c3ccccc3)c3ccccc32)C1 (stereo not drawn)
94,70,5,,,CN1CCC(n2cc(S(=O)(=O)c3cccc(F)c3)c3cc(F)ccc32)C1 (stereo not drawn)
,,18,,,O=S(=O)(c1cccc(F)c1)c1cn(C2CCNC2)c2cc(F)ccc12 (stereo not drawn)
82,64,1.5,,,O=S(=O)(c1cn(C2CCNC2)c2ccccc12)c1cccc2cccnc12 (stereo not drawn)
,,4.7,68,38,O=S(=O)(c1cccc(F)c1)c1cn(C2CCNC2)c2ccccc12 (stereo not drawn)
,,,82,99,O=S(=O)(c1ccccc1)c1cn(C2CCCNC2)c2ccccc12 (stereo not drawn)
,,3.2,125,48,O=S(=O)(c1cccc(Cl)c1)c1cn(C2CCNC2)c2ccccc12 (stereo not drawn)
76,97,2.8,,,CN1CCC(n2cc(S(=O)(=O)c3cccc4cccnc34)c3ccccc32)C1 (stereo not drawn)
107,100,23.3,,,O=S(=O)(c1cccc2ccccc12)c1cn(C2CCNC2)c2ccccc12 (stereo not drawn)
,,16,203,50,CCN1CCCC(n2cc(S(=O)(=O)c3cccc(F)c3)c3cc(OC)ccc32)C1 (stereo not drawn)
60,98,6,,,CN1CCC(n2cc(S(=O)(=O)c3cccc4ccccc34)c3ccccc32)C1 (stereo not drawn)
,,3.5,398,49,CN1CCC(n2cc(S(=O)(=O)c3cccc(F)c3)c3ccccc32)C1 (stereo not drawn)
,,10.7,73,75,COc1ccc2c(c1)c(S(=O)(=O)c1cccc(F)c1)cn2C1CCCNC1 (stereo not drawn)
,,6,56,78,O=S(=O)(c1cccc(F)c1)c1cn(C2CCCNC2)c2ccccc12 (stereo not drawn)
